Results: PubChem BioAssay (NCI)
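Tested at 5 concentrations; 48 h exposure; 96-well plates; endpoints linearly interpolated, else capped at highest concentration. GI50 = concentration required for 50% inhibition of growth. TGI: concentration producing complete growth inhibition.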

Key:
Experiment in all cases: DTP human tumour cell line panel, 48 h
[1] = system: HCT-116 colon
[2] = system: HOP-92 NSCLC
[3] = system: HT29 colon
[4] = system: NCI-H460 lung
[5] = system: OVCAR-3 ovarian
[6] = system: OVCAR-5 ovarian
[7] = system: OVCAR-8 ovarian
[8] = system: RPMI-8226 leukemia
[9] = system: SNB-75 CNS
[10] = system: UACC-62 melanoma

| SMILES | GI50 [1] | TGI [1] | GI50 [2] | TGI [2] | GI50 [3] | TGI [3] | GI50 [4] | TGI [4] | GI50 [5] | TGI [5] | GI50 [6] | TGI [6] | GI50 [7] | TGI [7] | GI50 [8] | TGI [8] | GI50 [9] | TGI [9] | GI50 [10] | TGI [10] |
| --- | --- | --- | --- | --- | --- | --- | --- | --- | --- | --- | --- | --- | --- | --- | --- | --- | --- | --- | --- | --- |
| Cc1cc(Cl)ccc1Nc1nc(C(F)(F)F)ccc1C(=O)N/N=C/c1ccc(Cl)cc1 | 2.46 µM | 9.87 µM | 1.94 µM | 6.85 µM | 3.24 µM | 10.4 µM | 2.37 µM | 9.08 µM | 1.32 µM | 5.28 µM | 2.07 µM | 6.64 µM | 3.16 µM | > 100 µM | 2.01 µM | 6.3 µM | 1.51 µM | 6.48 µM | 2.14 µM | 5.33 µM |
| CCCCC[C@H]1C/C=C2/C(=O)C=C[C@@H]2C/C=C\CCCC(=O)O[C@@H](CCCCC)C/C=C2/C(=O)C=C[C@@H]2C/C=C\CCCC(=O)O1 | 0.0896 µM | 0.333 µM | 0.593 µM | 1.2 µM | 0.218 µM | 0.822 µM | 0.606 µM | 1.48 µM | 0.0955 µM | 0.353 µM | 0.566 µM | 1.31 µM | 0.112 µM | 2.7 µM | 0.098 µM | 0.599 µM | 0.552 µM | 2.4 µM | 0.253 µM | 0.783 µM |
| N#CCCN(CCCN(CCCN(C(=O)Nc1ccccc1)c1ccccc1)C(=O)Nc1ccccc1)C(=O)Nc1ccccc1 | > 100 µM | > 100 µM | – | 80.4 µM | – | > 8.75 µM | – | > 8.75 µM | > 100 µM | > 100 µM | > 100 µM | > 100 µM | 85.2 µM | > 100 µM | 3.89 µM | > 100 µM | 59.5 µM | > 100 µM | > 100 µM | > 100 µM |
| CNCCCn1c2c(c3ccc([N+](=O)[O-])cc3c1=O)C(=O)c1cc(OC)cnc1-2 | 0.0283 µM | 0.186 µM | 0.237 µM | 2.44 µM | 0.0558 µM | 0.38 µM | 0.0194 µM | 0.185 µM | 0.174 µM | 0.617 µM | 0.135 µM | 0.882 µM | 0.0861 µM | 1.81 µM | 0.0764 µM | 0.527 µM | 0.134 µM | 2.46 µM | 0.02 µM | 0.122 µM |
| O=c1[nH]nc2ccccc2c1Cc1ccccc1 | – | > 100 µM | – | > 100 µM | – | > 100 µM | – | > 100 µM | – | > 100 µM | – | > 100 µM | – | > 100 µM | – | > 100 µM | – | > 100 µM | – | > 100 µM |
| O=CN/C=C/c1cccc(O)c1 | – | 75.6 µM | – | > 97.1 µM | – | 74.8 µM | – | 77.6 µM | – | > 100 µM | – | > 96.1 µM | – | > 96.1 µM | – | > 100 µM | – | > 92.5 µM | – | 63.3 µM |
| CCN(Cc1ccc(F)cc1)c1ccc(CO)c(F)c1 | 2.38 µM | 13.5 µM | 9.52 µM | 37.9 µM | 16 µM | > 53.9 µM | 3.93 µM | 20.4 µM | 5.38 µM | 18 µM | 1.26 µM | 4.13 µM | 16.2 µM | > 84.5 µM | 7.13 µM | 33.7 µM | 10 µM | > 86.4 µM | 1.62 µM | 7.42 µM |
